Test results taken from ChEMBL document CHEMBL1134883, “Antimalarial activity of ferrocenyl chalcones” (Bioorg Med Chem Lett, 2002).

What follows are substances tested on Plasmodium falciparum (assay: Growth inhibition of chloroquine-resistant Plasmodium falciparum K1 by [3H]hypoxanthine uptake).
Format: functional, organism-based
Work on “1-(1-Naphthalenyl)-3-ferrocenyl-2-propen-1-one” yielded an IC50 of 47.4 µM.
With “1-(2,3,4-Trimethoxyphenyl)-3-ferrocenyl-2-propen-1-one” the IC50 was 22.5 µM.
“1-(2,4-Dihydroxyphenyl)-3-ferrocenyl-2-propen-1-one” showed an IC50 of 31.5 µM.
Substance “1-(2,4-Dimethoxyphenyl)-3-ferrocenyl-2-propen-1-one” has an IC50 of 24.5 µM.
In the case of “1-(2-Hydroxyphenyl)-3-ferrocenyl-2-propen-1-one”, the IC50 is reported as 73.5 µM.
With “1-(2-Naphthalenyl)-3-ferrocenyl-2-propen-1-one” the IC50 was 21 µM.
In the case of “1-(3-pyridyl)-3-ferrocenyl-2-propen-1-one”, the IC50 is reported as 4.6 µM.
“1-(4-Butoxyphenyl)-3-ferrocenyl-2-propen-1-one” showed an IC50 of 80 µM.
“1-(4-Ethoxyphenyl)-3-ferrocenyl-2-propen-1-one” gave an IC50 of 200 µM.
With “1-(4-Hydroxyphenyl)-3-ferrocenyl-2-propen-1-one” the IC50 was 36 µM.
In the case of “1-(4-Methoxyphenyl)-3-ferrocenyl-2-propen-1-one”, the IC50 is reported as 410 µM.
1-(phenyl)-3-ferrocenyl-2-propen-1-one was tested, and the IC50 was 175 µM.
“1-ferrocenyl-3-(1-Naphthalenyl)-2-propen-1-one” gave an IC50 of 48.3 µM.
“1-ferrocenyl-3-(2,4-Dichlorophenyl)-2-propen-1-one” was tested, and the IC50 was 29.4 µM.
Substance “1-ferrocenyl-3-(2,4-Difluorophenyl)-2-propen-1-one” has an IC50 of 23.2 µM.
Work on “1-ferrocenyl-3-(2,4-Dimethoxyphenyl)-2-propen-1-one” yielded an IC50 of 18 µM.
“1-ferrocenyl-3-(2-Chlorophenyl)-2-propen-1-one” gave an IC50 of 42.4 µM.
“1-ferrocenyl-3-(2-Naphthalenyl)-2-propen-1-one” gave an IC50 of 73.5 µM.
“1-ferrocenyl-3-(3-Chlorophenyl)-2-propen-1-one” gave an IC50 of 36.2 µM.
For “1-ferrocenyl-3-(3-Quinolinyl)-2-propen-1-one”, the IC50 was 18.2 µM.
Substance “1-ferrocenyl-3-(3-pyridinyl)-2-propen-1-one” has an IC50 of 17 µM.
With “1-ferrocenyl-3-(4-Chlorophenyl)-2-propen-1-one” the IC50 was 14.5 µM.
“1-ferrocenyl-3-(4-Cyanophenyl)-2-propen-1-one” was tested, and the IC50 was 26.5 µM.
“1-ferrocenyl-3-(4-Fluorophenyl)-2-propen-1-one” showed an IC50 of 12.1 µM.
“1-ferrocenyl-3-(4-Hydroxyphenyl)-2-propen-1-one” gave an IC50 of 20.6 µM.
With “1-ferrocenyl-3-(4-Methoxyphenyl)-2-propen-1-one” the IC50 was 17 µM.
“1-ferrocenyl-3-(4-Methylphenyl)-2-propen-1-one” showed an IC50 of 147 µM.
For “1-ferrocenyl-3-(4-Nitrophenyl)-2-propen-1-one”, the IC50 was 5.1 µM.
“1-ferrocenyl-3-(4-Quinolinyl)-2-propen-1-one” gave an IC50 of 14 µM.
“1-ferrocenyl-3-(4-Trifluoromethylphenyl)-2-propen-1-one” showed an IC50 of 58.4 µM.
1-ferrocenyl-3-(phenyl)-2-propen-1-one showed an IC50 of 19 µM.
